According to PubChem BioAssay (NCI):
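Each compound was tested at five concentrations against cells in 96-well plates for 48 hours. At the GI50, growth is halved. TGI: concentration producing complete growth inhibition.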

Key:
Experiment in all cases: NCI-60 cell line screen, 48 h
[1] = tested on: 786-0 renal
[2] = tested on: A498 renal
[3] = tested on: A549 NSCLC
[4] = tested on: ACHN renal
[5] = tested on: BT-549 breast
[6] = tested on: CAKI-1 renal
[7] = tested on: CCRF-CEM leukemia
[8] = tested on: COLO 205 colon
[9] = tested on: DU-145 prostate
[10] = tested on: EKVX NSCLC
[11] = tested on: HCC-2998 colon
[12] = tested on: HCT-116 colon
[13] = tested on: HCT-15 colon
[14] = tested on: HL-60(TB) leukemia
[15] = tested on: HOP-62 NSCLC
[16] = tested on: HOP-92 NSCLC
[17] = tested on: HS 578T breast
[18] = tested on: HT29 colon
[19] = tested on: IGROV1 ovarian
[20] = tested on: K-562 leukemia
[21] = tested on: KM12 colon
[22] = tested on: LOX IMVI melanoma
[23] = tested on: M14 melanoma
[24] = tested on: MALME-3M melanoma
[25] = tested on: MCF7 breast
[26] = tested on: MDA-MB-231 breast
[27] = tested on: MDA-MB-435
[28] = tested on: MOLT-4 leukemia
[29] = tested on: NCI-H226 lung
[30] = tested on: NCI-H23 lung
[31] = tested on: NCI-H460 lung
[32] = tested on: NCI-H522 lung
[33] = tested on: NCI/ADR-RES ovarian
[34] = tested on: OVCAR-3 ovarian
[35] = tested on: OVCAR-4 ovarian
[36] = tested on: OVCAR-5 ovarian
[37] = tested on: OVCAR-8 ovarian
[38] = tested on: PC-3 prostate
[39] = tested on: RPMI-8226 leukemia
[40] = tested on: RXF 393 renal
[41] = tested on: SF-268 CNS
[42] = tested on: SF-295 CNS
[43] = tested on: SF-539 CNS
[44] = tested on: SK-MEL-2 melanoma
[45] = tested on: SK-MEL-28 melanoma
[46] = tested on: SK-MEL-5 melanoma
[47] = tested on: SK-OV-3 ovarian
[48] = tested on: SN12C renal
[49] = tested on: SNB-19 CNS
[50] = tested on: SNB-75 CNS
[51] = tested on: SW-620 colon
[52] = tested on: T-47D breast
[53] = tested on: TK-10 renal
[54] = tested on: U251 CNS
[55] = tested on: UACC-257 melanoma
[56] = tested on: UACC-62 melanoma
[57] = tested on: UO-31 renal

CC[C@@H](C(=O)[C@@H](C)[C@@H](O)[C@H](C)[C@@H]1O[C@@H]([C@@H](CC)C(=O)O)CC[C@@H]1C)[C@H]1O[C@]2(C=C[C@@H](O)[C@]3(CC[C@@](C)([C@H]4CC[C@](O)(CC)[C@H](C)O4)O3)O2)[C@H](C)C[C@@H]1C
GI50 [1]: 1.25 µM
TGI [1]: 19.2 µM
GI50 [2]: 0.0567 µM
TGI [2]: 0.821 µM
GI50 [3]: 0.421 µM
TGI [3]: 14.1 µM
GI50 [4]: 1.39 µM
TGI [4]: 49.2 µM
GI50 [5]: 0.248 µM
TGI [5]: 4.33 µM
GI50 [6]: 1.61 µM
TGI [6]: 44.2 µM
GI50 [7]: 0.255 µM
TGI [7]: 12.7 µM
GI50 [8]: 0.489 µM
TGI [8]: 11 µM
GI50 [9]: 1.71 µM
TGI [9]: 28.5 µM
GI50 [10]: 1.11 µM
TGI [10]: 24.8 µM
GI50 [11]: 0.166 µM
TGI [11]: 13 µM
GI50 [12]: 0.63 µM
TGI [12]: 30.2 µM
GI50 [13]: 0.912 µM
TGI [13]: > 100 µM
GI50 [14]: 0.14 µM
TGI [14]: 0.815 µM
GI50 [15]: 1.12 µM
TGI [15]: 16.9 µM
GI50 [16]: 0.266 µM
TGI [16]: 5.1 µM
GI50 [17]: 0.914 µM
TGI [17]: 36.1 µM
GI50 [18]: 0.331 µM
TGI [18]: 15 µM
GI50 [19]: 2.05 µM
TGI [19]: > 84.7 µM
GI50 [20]: 0.207 µM
TGI [20]: 5.72 µM
GI50 [21]: 1.18 µM
TGI [21]: 15.7 µM
GI50 [22]: 0.596 µM
TGI [22]: 12.9 µM
GI50 [23]: 1.39 µM
TGI [23]: 3.05 µM
GI50 [24]: 0.416 µM
TGI [24]: 1.81 µM
GI50 [25]: 0.315 µM
TGI [25]: 13.1 µM
GI50 [26]: 0.732 µM
TGI [26]: 7.68 µM
GI50 [27]: 1.08 µM
TGI [27]: 2.72 µM
GI50 [28]: 0.911 µM
TGI [28]: 5.17 µM
GI50 [29]: 2.07 µM
TGI [29]: 19.6 µM
GI50 [30]: 0.528 µM
TGI [30]: 11.4 µM
GI50 [31]: 0.441 µM
TGI [31]: 11.9 µM
GI50 [32]: 0.0469 µM
TGI [32]: 0.47 µM
GI50 [33]: 1.32 µM
TGI [33]: 51.4 µM
GI50 [34]: 0.166 µM
TGI [34]: 25.8 µM
GI50 [35]: 1.12 µM
TGI [35]: 34 µM
GI50 [36]: 6.61 µM
TGI [36]: 80.5 µM
GI50 [37]: 1.2 µM
TGI [37]: 29.5 µM
GI50 [38]: 0.084 µM
TGI [38]: 32.6 µM
GI50 [39]: 0.277 µM
TGI [39]: 3.75 µM
GI50 [40]: 0.114 µM
TGI [40]: 2.64 µM
GI50 [41]: 1.93 µM
TGI [41]: 24.8 µM
GI50 [42]: 0.447 µM
TGI [42]: 7.71 µM
GI50 [43]: 0.806 µM
TGI [43]: 5.27 µM
GI50 [44]: 0.279 µM
TGI [44]: 2.48 µM
GI50 [45]: 1.14 µM
TGI [45]: 2.38 µM
GI50 [46]: 0.401 µM
TGI [46]: 1.61 µM
GI50 [47]: 3.6 µM
TGI [47]: 48 µM
GI50 [48]: 0.226 µM
TGI [48]: 44.8 µM
GI50 [49]: 0.689 µM
TGI [49]: 5.97 µM
GI50 [50]: 1.05 µM
TGI [50]: 4.31 µM
GI50 [51]: 1.56 µM
TGI [51]: 12.6 µM
GI50 [52]: 0.383 µM
TGI [52]: 16.7 µM
GI50 [53]: 0.942 µM
TGI [53]: 17.8 µM
GI50 [54]: 0.149 µM
TGI [54]: 8.91 µM
GI50 [55]: 0.461 µM
TGI [55]: 6.79 µM
GI50 [56]: 1.04 µM
TGI [56]: 2.33 µM
GI50 [57]: 1.05 µM
TGI [57]: 25.5 µM

CNc1nc(-c2ccc3c(N)n[nH]c3c2)cc(N2C[C@@H](C(=O)NC3CCCCC3)CC[C@H]2C)n1
GI50 [1]: 3.28 µM
TGI [1]: 14.6 µM
GI50 [2]: 0.301 µM
TGI [2]: 3.02 µM
GI50 [3]: 3.37 µM
TGI [3]: 20.8 µM
GI50 [4]: 2.81 µM
TGI [4]: 19.9 µM
GI50 [5]: 1.91 µM
TGI [5]: 12.3 µM
GI50 [6]: 1.14 µM
TGI [6]: 20.6 µM
GI50 [7]: 1.78 µM
TGI [7]: > 48.1 µM
GI50 [8]: 1.54 µM
TGI [8]: 12 µM
GI50 [9]: 5.91 µM
TGI [9]: 21.3 µM
GI50 [10]: 2.12 µM
TGI [10]: 15.4 µM
GI50 [11]: 8.53 µM
TGI [11]: 21.7 µM
GI50 [12]: 4.4 µM
TGI [12]: 18.8 µM
GI50 [13]: 4.33 µM
TGI [13]: 19.4 µM
GI50 [14]: 2.68 µM
TGI [14]: 18.5 µM
GI50 [15]: 3.26 µM
TGI [15]: 17.9 µM
GI50 [16]: 0.189 µM
TGI [16]: 3.99 µM
GI50 [17]: 1.06 µM
TGI [17]: 8.86 µM
GI50 [18]: 2.25 µM
TGI [18]: 17.1 µM
GI50 [19]: 2.45 µM
TGI [19]: 14.9 µM
GI50 [20]: 3.78 µM
TGI [20]: 39 µM
GI50 [21]: 8.37 µM
TGI [21]: 22.4 µM
GI50 [22]: 3.8 µM
TGI [22]: 19.4 µM
GI50 [23]: 3.02 µM
TGI [23]: 20.1 µM
GI50 [24]: 0.302 µM
TGI [24]: 10.7 µM
GI50 [25]: 0.996 µM
TGI [25]: 11.2 µM
GI50 [26]: 2.61 µM
TGI [26]: 15.7 µM
GI50 [27]: 1.11 µM
TGI [27]: 14.4 µM
GI50 [28]: 1.84 µM
TGI [28]: > 32.5 µM
GI50 [29]: 6.74 µM
TGI [29]: 22.7 µM
GI50 [30]: 3.69 µM
TGI [30]: 20.1 µM
GI50 [31]: 1.5 µM
TGI [31]: 15.7 µM
GI50 [32]: 4.52 µM
TGI [32]: 18.3 µM
GI50 [33]: 13.3 µM
TGI [33]: 41.3 µM
GI50 [34]: 2.16 µM
TGI [34]: 15.6 µM
GI50 [35]: 3.6 µM
TGI [35]: 23.1 µM
GI50 [36]: 3.43 µM
TGI [36]: 16.8 µM
GI50 [37]: 9.16 µM
TGI [37]: 24.7 µM
GI50 [38]: 0.405 µM
TGI [38]: 18.4 µM
GI50 [39]: 2.93 µM
TGI [39]: 18.3 µM
GI50 [40]: 1.31 µM
TGI [40]: 8.78 µM
GI50 [41]: 2.98 µM
TGI [41]: 19 µM
GI50 [42]: 2.61 µM
TGI [42]: 15.8 µM
GI50 [43]: 3.76 µM
TGI [43]: 17.8 µM
GI50 [44]: 1.18 µM
TGI [44]: 8.13 µM
GI50 [45]: 1.68 µM
TGI [45]: 15.8 µM
GI50 [46]: 2.84 µM
TGI [46]: 13.9 µM
GI50 [47]: 0.495 µM
TGI [47]: 9.97 µM
GI50 [48]: 3.04 µM
TGI [48]: 20.2 µM
GI50 [49]: 4.42 µM
TGI [49]: 18 µM
GI50 [50]: 0.457 µM
TGI [50]: 7.23 µM
GI50 [51]: 6.85 µM
TGI [51]: 23.4 µM
GI50 [52]: 0.13 µM
TGI [52]: 5.3 µM
GI50 [53]: 0.366 µM
TGI [53]: 9.46 µM
GI50 [54]: 3.88 µM
TGI [54]: 17.9 µM
GI50 [55]: 1.3 µM
TGI [55]: 16.8 µM
GI50 [56]: 0.858 µM
TGI [56]: 16.3 µM
GI50 [57]: 0.854 µM
TGI [57]: 13.7 µM
